Measurements published in paper PMC10580319, “Quantitative Imaging of the Action of vCPP2319, an Antimicrobial Peptide from a Viral Scaffold, against Staphylococcus aureus Biofilms of a Clinical Isolate” (ACS Infectious Diseases, 2023).
Where no end group is shown, it is not given here.

Key:
Assay type in all cases: cell-based, Staphylococcus aureus
[1] = system: S. aureus ATCC 6538 biofilms; test: Colony count assay on 24 h-preformed biofilms; conditions: 25 or 50 μM, 4 h, colony count (Figure 2C)
Description: (§1) The effect of vCPP2319 on 24 h-preformed S. aureus biofilms was evaluated using three distinct methods, as previously described:[24] the metabolic activity and viability of biofilm-embedded cells was determined using a resazurin reduction fluorometric assay and a colony count assay, respectively. The total biofilm biomass was quantified by using a crystal violet assay.
(§2) S. aureus suspensions at 1 × 10^6 CFU/mL were incubated in a sterile 96-well microtiter clear flat-bottomed polystyrene plate (Corning) for 24 h at 37 °C. Nonadherent bacteria were removed after a washing step with MHB, and preformed biofilms were incubated in the absence or presence of vCPP2319 at 25 or 50 μM, for 4 h at 37 °C. Untreated biofilms were used as a control. To evaluate the effect of vCPP2319 redosing on biofilm-embedded bacteria, 24 h-preformed biofilms were incubated in the absence or presence of vCPP2319 at 25 μM, for 4 h at 37 °C. After a washing step with MHB, biofilms were further incubated in the absence or presence of an additional dose of vCPP2319 at 25 or 50 μM, for 4 h at 37 °C. In both experimental settings, after two washing steps with PBS, the biofilms were resuspended in PBS, followed by cell scrapping with a pipet tip as described elsewhere.[49],[50] […] After incubation, the biofilms were removed by cell scrapping with a pipet tip as described elsewhere.[49],[50] In all experimental settings, aliquots were vortexed at high speed, serially diluted in PBS and plated on nutrient-rich trypcase soy agar (TSA) plates (bioMérieux, Marcy l’Etoile, France). After incubation for 24 h at 37 °C, bacterial colonies were counted, and viable bacteria (in CFU/mL) were reported as percentage of the control.

[2] = system: S. aureus clinical isolate biofilms; test: Colony count assay on 24 h-preformed biofilms; conditions: mean ± SD
Description: as §1, §2

[3] = system: S. aureus clinical isolate biofilm-embedded bacteria; test: CLSM live/dead assay, SYTO 9 / TO-PRO-3 iodide, membrane integrity; conditions: 25 and 50 μM, 4 h in PBS, inner layer z = 2 μm
Description: To visualize the effect of vCPP2319 on membrane integrity of biofilm-embedded bacteria, an adapted live/dead assay using SYTO 9 and TO-PRO-3 iodide (Invitrogen) was performed, as previously described.[24]S. aureus suspensions at 1 × 10^6 CFU/mL were incubated in a sterile μ-Slide 8-well plate (Ibidi) for 24 h at 37 °C. Preformed biofilms were washed once with PBS and incubated with vCPP2319 at 25 or 50 μM, in PBS, for 4 h at 37 °C. Untreated biofilms were used as a control. After a washing step with PBS, biofilms were sequentially stained with 3 μM SYTO 9 for 30 min and 4 μM TO-PRO-3 iodide for 15 min at room temperature.
SYTO 9 was excited using the Argon laser (488 nm), and both TO-PRO-3 iodide and WGA Alexa Fluor 633 were excited with the Helium–Neon laser (633 nm), respectively. […] All images were analyzed with the image processor Fiji.[54] TO-PRO-3 mean fluorescence intensity over the image was quantified from the xy plane of an inner layer (z = 2 μm, z being the distance from the surface of the glass slide) using Fiji’s incorporated plug-ins.[54] WGA mean fluorescence intensity over the image was quantified from the xy plane of an inner layer (z = 2 μm, z being the distance from the surface of the glass slide) and also from a z-projection of the sum of the z-stack slices, using Fiji’s incorporated plug-ins.[54] […]

[4] = system: S. aureus clinical isolate biofilms; test: CLSM assay, SYTO 9 / WGA Alexa Fluor 633, polysaccharide density and mass, biofilm height; conditions: fold variation relative to untreated biofilm, 0.13 mg/mL α-amylase, 25 μM vCPP2319, 4 h each
Description: (EC 3.2.1.1) on the EPS matrix of S. aureus biofilms was evaluated using a CLSM-based assay. Briefly, the bacterial cells and the matrix components of S. aureus biofilms were imaged using SYTO 9 and Wheat Germ Agglutinin (WGA) Alexa Fluor 633 Conjugate (Invitrogen, Carlsbad, CA, USA). Preformed biofilms (see above) were washed once with PBS and stained with 3 μM SYTO 9 and 5 μg/mL WGA Alexa Fluor 633, for 15 min at room temperature.
SYTO 9 was excited using the Argon laser (488 nm), and both TO-PRO-3 iodide and WGA Alexa Fluor 633 were excited with the Helium–Neon laser (633 nm), respectively. Image acquisition was performed on a Zeiss LSM 710 confocal laser point-scanning inverted microscope (Carl Zeiss MicroImaging, Oberkochen, Germany) equipped with a Plan-Apochromat DIC 63× oil immersion objective (1.40 numerical aperture). For each experiment, three different areas were imaged. All images were analyzed with the image processor Fiji.[54] TO-PRO-3 mean fluorescence intensity over the image was quantified from the xy plane of an inner layer (z = 2 μm, z being the distance from the surface of the glass slide) using Fiji’s incorporated plug-ins.[54] WGA mean fluorescence intensity over the image was quantified from the xy plane of an inner layer (z = 2 μm, z being the distance from the surface of the glass slide) and also from a z-projection of the sum of the z-stack slices, using Fiji’s incorporated plug-ins.[54] Biofilm height was determined from the xz orthogonal images using ZEN lite software (Carl Zeiss MicroImaging).
The mean emission fluorescence intensity of WGA integrated over a plane xy at a specific depth, z, If,WGA,xy, is proportional to the mass of polysaccharides in that plane.

[5] = system: S. aureus ATCC 6538 biofilms; test: Crystal violet binding assay, biofilm biomass; conditions: 24 h-preformed biofilms, treatment for 4 or 24 h
Description: as §1
Crystal violet is a basic dye that binds to negatively charged molecules, such as those in biofilms EPS matrix and on bacterial membrane surface.[51]S. aureus suspensions at 1 × 10^6 CFU/mL were incubated in a 96-well microtiter clear flat-bottomed polystyrene plate (Corning) for 24 h at 37 °C. […] (EC 3.2.1.1), ranging from 0.0078 to 0.5 mg/mL, for 4 h at 37 °C. Untreated biofilms were used as a control. Biofilms were washed twice with MHB and incubated with 0.25% (v/v in sterile Milli-Q water) crystal violet (Sigma-Aldrich) for 30 min at room temperature. After each sample was washed three times with MHB, crystal violet was solubilized with 95% (v/v) ethanol (Carlo Erba Reagents S.A.S., France) by repeated pipetting. Biofilm biomass was quantified by measuring the absorbance at 590 nm of each sample in an infinite M200 microplate reader (Tecan). The percentage of crystal violet staining was determined relative to the control after blank (0.25% (v/v) crystal violet in sterile Milli-Q water) correction.

Substance: WRRRYRRWRRRRRWRRRPRR-NH2 [vCPP2319]
- viability of biofilm-embedded cells [1]: decreased bacterial viability
- percentage of viable cells ([2]; 25 μM for 4 h, then second treatment at 25 μM for 4 h): 27.6 ± 13.6%
- percentage of viable cells ([2]; 25 μM for 4 h, then second treatment at 50 μM for 4 h): 9.4 ± 4.7%
- percentage of viable cells ([2]; first treatment 25 μM for 4 h, relative to untreated biofilm): 44.7 ± 4.3%
- membrane damage, TO-PRO-3 iodide staining [3]: increase of red-stained bacteria
- ρi/ρcontrol (polysaccharides) eq 4 ([4]; WGA fluorescence at z = 2 μm): 0.7
- mi/mcontrol (polysaccharides) eq 5 ([4]; integrated WGA fluorescence over total biofilm): 0.5
- ρi/ρcontrol (polysaccharides) eq 6 ([4]; integrated WGA fluorescence over zz divided by biofilm height): 0.8
- effect on biofilm biomass [5]: no significant changes
